Laboratory results taken from publication PMC2215435 (The Journal of General Physiology, 1981).
Like-named read-outs stand apart in the source and are kept apart here.

Test system: potassium channel
Format: cell-based, squid Loligo pealei
Conditions: for rate constant of block b: calculated from Kd = l/b and tau decay (Table IV); for tau decay / blocking rate constant K (fit of current with Eq. 2) / unblocking rate constant L (fit of current with Eq. 2): 30 μM; for blocking rate constant K (fit of current with Eq. 2) / unblocking rate constant L (fit of current with Eq. 2): Fig. 1B
[1] = +100 mV, several experiments, Fig. 3B, r = 0.98

SMILES	rate constant of unblock l (+60 mV (Table IV))	rate constant of block b (+60 mV)	rate constant of unblock l (+80 mV (Table IV))	rate constant of block b (+80 mV)	rate constant of unblock l (+100 mV (Table IV))	rate constant of block b (+100 mV)	tau decay (+100 mV, 6 °C)	tau decay (+100 mV, 8 °C)	tau decay (+100 mV, 16 °C)	blocking rate constant K (fit of current with Eq. 2) (+60 mV)	unblocking rate constant L (fit of current with Eq. 2) (+60 mV)	blocking rate constant K (fit of current with Eq. 2) (+100 mV)	unblocking rate constant L (fit of current with Eq. 2) (+100 mV)	time constant of decay of potassium current (tau decay) (10 μM, +100 mV)	time constant of decay of potassium current (tau decay) (33 μM, +100 mV)	time constant of decay of potassium current (tau decay) (100 μM, +100 mV)	b from straight line 1/tau decay = b[QA] + l [1]	l from straight line 1/tau decay = b[QA] + l [1]
CCCCCCC[N+](CC)(CC)CC [C7TE, heptyltriethylammonium]	0.071 ms-1	2.8 ms-1 mM-1	0.072 ms-1	3.4 ms-1 mM-1	0.063 ms-1	3.6 ms-1 mM-1	–	–	–	–	–	–	–	–	–	–	–	–
CCCCCCCCC[N+](CC)(CC)CC [C9TE, nonyltriethylammonium]	0.030 ms-1	5.5 ms-1 mM-1	0.028 ms-1	6.1 ms-1 mM-1	0.033 ms-1	7.3 ms-1 mM-1	–	–	–	–	–	–	–	–	–	–	–	–
CCCCCCCCCC[N+](CC)(CC)CC [C10TE, decyltriethylammonium]	0.019 ms-1	5.2 ms-1 mM-1	0.019 ms-1	6.0 ms-1 mM-1	0.023 ms-1	6.7 ms-1 mM-1	5.78 ms	3.83 ms	2.06 ms	–	–	–	–	–	–	–	–	–
CCCCCCCCCC[N+](CCO)(CCO)CCO [C10TEtoh, decyltriethanolammonium]	0.084 ms-1	0.43 ms-1 mM-1	0.097 ms-1	0.55 ms-1 mM-1	0.110 ms-1	0.65 ms-1 mM-1	–	–	–	–	–	–	–	–	–	–	–	–
CCCCCCCCCC[N+](CCC)(CCC)CCC [C10TP, decyltripropylammonium]	0.015 ms-1	0.13 ms-1 mM-1	0.016 ms-1	0.15 ms-1 mM-1	0.015 ms-1	0.17 ms-1 mM-1	–	–	–	–	–	–	–	–	–	–	–	–
CCCCCCCC[N+](CC)(CC)CCO [CsDEEtoh, octyldiethylethanolammonium]	–	6.2 ms-1 mM-1	–	8.0 ms-1 mM-1	–	9.4 ms-1 mM-1	–	–	–	0.162 ms-1	0.118 ms-1	0.234 ms-1	0.112 ms-1	–	–	–	–	–
CCCCCCCC[N+](CC)(CC)CCCO [CsDEProh, octyldiethylpropanolammonium]	0.0236 ms-1	2.56 ms-1 mM-1	0.0308 ms-1	3.55 ms-1 mM-1	0.0262 ms-1	4.10 ms-1 mM-1	–	–	–	–	–	–	–	11.42 ms	6.88 ms	2.21 ms	4.0 ms-1 mM-1	0.032 ms-1
CCCCCCCC[N+](CC)(CC)CC [CsTE, octyltriethylammonium]	0.038 ms-1	5.1 ms-1 mM-1	0.038 ms-1	5.5 ms-1 mM-1	0.043 ms-1	5.9 ms-1 mM-1	–	–	–	–	–	–	–	–	–	–	–	–
CCCCCCCC[N+](CCC)(CCC)CCC [CsTP, octyltripropylammonium]	0.021 ms-1	0.95 ms-1 mM-1	0.031 ms-1	1.22 ms-1 mM-1	0.039 ms-1	1.40 ms-1 mM-1	–	–	–	–	–	–	–	–	–	–	–	–
CC[N+](CC)(CCO)CCCc1ccccc1 [~PDEEtoh, phenylpropyldiethylethanolammonium]	0.024 ms-1	3.4 ms-1 mM-1	0.037 ms-1	3.9 ms-1 mM-1	0.033 ms-1	4.3 ms-1 mM-1	–	–	–	–	–	–	–	–	–	–	–	–
CC[N+](CC)(CC)CCCc1ccccc1 [~PTE, phenylpropyltriethylammonium]	0.015 ms-1	2.5 ms-1 mM-1	0.013 ms-1	2.7 ms-1 mM-1	0.025 ms-1	3.5 ms-1 mM-1	–	–	–	–	–	–	–	–	–	–	–	–
